Assay results as given in the NIST ThermoML archive (doi:10.1021/je0601457).
± gives the expanded uncertainty stated by the source.

Assay: xn = mol fraction of the nth substance listed

Cc1cnccn1 [2-methylpyrazine] + O=C=O
Fluid (supercritical or subcritical phases), Linear displacement technique
Details	mass density [kg/m3]
329.15 K, 13140 kPa, x1 = 0.017	626 ± 29
329.15 K, 14240 kPa, x1 = 0.017	652 ± 28
331.05 K, 10450 kPa, x1 = 0.081	785 ± 31
331.05 K, 10590 kPa, x1 = 0.081	785 ± 32
331.65 K, 6380 kPa, x1 = 0.624	896 ± 36
331.65 K, 9900 kPa, x1 = 0.624	901 ± 36
331.65 K, 13480 kPa, x1 = 0.624	904 ± 36
331.65 K, 18240 kPa, x1 = 0.624	910 ± 36
332.35 K, 11210 kPa, x1 = 0.023	375 ± 15
332.35 K, 12340 kPa, x1 = 0.023	438 ± 22
332.35 K, 13280 kPa, x1 = 0.023	470 ± 19
332.35 K, 15340 kPa, x1 = 0.023	519 ± 23
332.35 K, 16620 kPa, x1 = 0.023	540 ± 22
332.45 K, 12000 kPa, x1 = 0.122	863 ± 35
332.45 K, 13550 kPa, x1 = 0.122	881 ± 35
332.45 K, 15590 kPa, x1 = 0.122	901 ± 36
333.55 K, 11790 kPa, x1 = 0.033	617 ± 48
333.55 K, 12720 kPa, x1 = 0.033	679 ± 35
333.55 K, 13340 kPa, x1 = 0.033	719 ± 31
333.55 K, 15340 kPa, x1 = 0.033	780 ± 31
335.65 K, 9480 kPa, x1 = 0.264	822 ± 33
335.65 K, 10900 kPa, x1 = 0.264	829 ± 33
335.65 K, 14380 kPa, x1 = 0.264	842 ± 34
335.65 K, 17720 kPa, x1 = 0.264	852 ± 34
336.95 K, 12340 kPa, x1 = 0.062	716 ± 30
336.95 K, 13280 kPa, x1 = 0.062	743 ± 31
336.95 K, 14520 kPa, x1 = 0.062	775 ± 32
336.95 K, 16970 kPa, x1 = 0.062	820 ± 33
337.05 K, 3620 kPa, x1 = 0.857	892 ± 36
337.05 K, 5550 kPa, x1 = 0.857	893 ± 36
337.05 K, 9000 kPa, x1 = 0.857	897 ± 36
337.05 K, 13590 kPa, x1 = 0.857	901 ± 36
338.55 K, 12240 kPa, x1 = 0.081	752 ± 30
338.55 K, 13210 kPa, x1 = 0.081	765 ± 31
338.55 K, 14930 kPa, x1 = 0.081	774 ± 32
339.25 K, 10930 kPa, x1 = 0.156	847 ± 34
339.25 K, 13760 kPa, x1 = 0.156	869 ± 35
339.25 K, 17210 kPa, x1 = 0.156	884 ± 35
340.45 K, 11280 kPa, x1 = 0.017	346 ± 29
340.45 K, 11480 kPa, x1 = 0.017	371 ± 51
340.45 K, 11970 kPa, x1 = 0.017	408 ± 28
340.45 K, 12790 kPa, x1 = 0.017	455 ± 25
341.55 K, 14410 kPa, x1 = 0.091	782 ± 32
341.55 K, 15410 kPa, x1 = 0.091	801 ± 32
341.55 K, 17340 kPa, x1 = 0.091	828 ± 33
342.35 K, 11760 kPa, x1 = 0.023	283 ± 20
342.35 K, 11970 kPa, x1 = 0.023	291 ± 19
342.35 K, 12340 kPa, x1 = 0.023	300 ± 65
344.65 K, 12480 kPa, x1 = 0.033	482 ± 30
344.65 K, 13170 kPa, x1 = 0.033	529 ± 33
344.65 K, 13860 kPa, x1 = 0.033	578 ± 29
344.65 K, 14660 kPa, x1 = 0.033	620 ± 28
344.65 K, 15310 kPa, x1 = 0.033	649 ± 28
344.65 K, 16550 kPa, x1 = 0.033	683 ± 29
344.95 K, 11340 kPa, x1 = 0.339	920 ± 37
344.95 K, 18720 kPa, x1 = 0.339	941 ± 38
345.05 K, 10790 kPa, x1 = 0.264	808 ± 32
345.05 K, 12720 kPa, x1 = 0.264	818 ± 33
345.05 K, 15280 kPa, x1 = 0.264	828 ± 33
345.05 K, 19170 kPa, x1 = 0.264	842 ± 34
346.15 K, 14380 kPa, x1 = 0.039	582 ± 27
346.15 K, 15070 kPa, x1 = 0.039	617 ± 29
348.65 K, 7590 kPa, x1 = 0.624	879 ± 35
348.65 K, 11830 kPa, x1 = 0.624	884 ± 35
348.65 K, 16240 kPa, x1 = 0.624	890 ± 36
349.45 K, 14100 kPa, x1 = 0.122	787 ± 32
349.45 K, 15520 kPa, x1 = 0.122	810 ± 33
349.45 K, 16310 kPa, x1 = 0.122	824 ± 33
349.45 K, 18790 kPa, x1 = 0.122	852 ± 34
349.75 K, 14100 kPa, x1 = 0.062	691 ± 32
349.75 K, 15100 kPa, x1 = 0.062	722 ± 29
351.15 K, 13970 kPa, x1 = 0.081	778 ± 31
351.15 K, 14720 kPa, x1 = 0.081	780 ± 31
351.15 K, 16720 kPa, x1 = 0.081	783 ± 31
351.35 K, 3760 kPa, x1 = 0.857	878 ± 35
351.35 K, 7000 kPa, x1 = 0.857	882 ± 35
351.35 K, 11210 kPa, x1 = 0.857	888 ± 36
351.35 K, 17340 kPa, x1 = 0.857	893 ± 36
352.75 K, 14140 kPa, x1 = 0.039	495 ± 21
352.75 K, 14790 kPa, x1 = 0.039	525 ± 25
352.75 K, 15410 kPa, x1 = 0.039	543 ± 23
355.05 K, 11030 kPa, x1 = 0.339	918 ± 37
355.05 K, 14660 kPa, x1 = 0.339	927 ± 37
355.05 K, 17280 kPa, x1 = 0.339	939 ± 38
355.15 K, 13690 kPa, x1 = 0.156	808 ± 38
355.15 K, 14590 kPa, x1 = 0.156	821 ± 33
355.15 K, 16930 kPa, x1 = 0.156	843 ± 34
358.25 K, 15690 kPa, x1 = 0.091	696 ± 29
358.25 K, 16450 kPa, x1 = 0.091	714 ± 29
358.25 K, 17690 kPa, x1 = 0.091	743 ± 30
358.25 K, 19210 kPa, x1 = 0.091	767 ± 31
358.25 K, 20690 kPa, x1 = 0.091	787 ± 32
365.65 K, 17000 kPa, x1 = 0.122	746 ± 30
365.65 K, 18100 kPa, x1 = 0.122	769 ± 31
365.65 K, 19170 kPa, x1 = 0.122	786 ± 32
369.15 K, 15970 kPa, x1 = 0.091	633 ± 27
369.15 K, 16660 kPa, x1 = 0.091	659 ± 31
369.15 K, 17340 kPa, x1 = 0.091	681 ± 28
369.15 K, 18100 kPa, x1 = 0.091	701 ± 29
369.15 K, 19000 kPa, x1 = 0.091	721 ± 33
371.75 K, 4380 kPa, x1 = 0.857	861 ± 34
371.75 K, 8450 kPa, x1 = 0.857	865 ± 35
371.75 K, 15830 kPa, x1 = 0.857	875 ± 35
371.75 K, 28450 kPa, x1 = 0.857	889 ± 36
374.25 K, 14030 kPa, x1 = 0.033	346 ± 18
374.25 K, 14550 kPa, x1 = 0.033	367 ± 18
374.25 K, 15000 kPa, x1 = 0.033	384 ± 18
374.25 K, 16240 kPa, x1 = 0.033	425 ± 19
374.55 K, 17210 kPa, x1 = 0.081	740 ± 30
374.55 K, 19210 kPa, x1 = 0.081	768 ± 31
374.75 K, 16100 kPa, x1 = 0.062	592 ± 29
374.75 K, 16720 kPa, x1 = 0.062	626 ± 33
374.75 K, 16970 kPa, x1 = 0.062	639 ± 30
375.55 K, 16790 kPa, x1 = 0.156	765 ± 31
375.55 K, 18100 kPa, x1 = 0.156	789 ± 32
375.55 K, 19970 kPa, x1 = 0.156	811 ± 33
375.75 K, 17000 kPa, x1 = 0.264	758 ± 30
375.75 K, 20720 kPa, x1 = 0.264	778 ± 31
375.75 K, 24590 kPa, x1 = 0.264	797 ± 32
376.35 K, 14860 kPa, x1 = 0.039	367 ± 19
376.35 K, 15760 kPa, x1 = 0.039	406 ± 20
376.65 K, 7970 kPa, x1 = 0.624	846 ± 34
376.65 K, 10970 kPa, x1 = 0.624	852 ± 34
376.65 K, 14930 kPa, x1 = 0.624	859 ± 34
376.65 K, 19340 kPa, x1 = 0.624	864 ± 35
379.45 K, 17410 kPa, x1 = 0.091	598 ± 26
379.45 K, 20340 kPa, x1 = 0.091	675 ± 28
379.45 K, 21900 kPa, x1 = 0.091	705 ± 29
379.45 K, 24210 kPa, x1 = 0.091	731 ± 29
387.35 K, 15480 kPa, x1 = 0.339	899 ± 36
387.35 K, 18070 kPa, x1 = 0.339	912 ± 37
387.35 K, 22790 kPa, x1 = 0.339	933 ± 37

Liquid, linear displacement
Details	mass density [kg/m3]
331.05 K, x1 = 0.081	785 ± 32
331.65 K, x1 = 0.624	892 ± 36
332.35 K, x1 = 0.023	323 ± 13
332.45 K, x1 = 0.122	840 ± 34
333.55 K, x1 = 0.033	574 ± 23
335.65 K, x1 = 0.264	822 ± 33
336.95 K, x1 = 0.062	689 ± 28
337.05 K, x1 = 0.857	888 ± 36
338.55 K, x1 = 0.081	746 ± 30
339.25 K, x1 = 0.156	843 ± 34
341.55 K, x1 = 0.091	731 ± 29
344.95 K, x1 = 0.339	913 ± 38
345.05 K, x1 = 0.264	808 ± 33
346.15 K, x1 = 0.039	462 ± 19
348.65 K, x1 = 0.624	875 ± 35
349.45 K, x1 = 0.122	770 ± 31
349.75 K, x1 = 0.062	660 ± 27
351.35 K, x1 = 0.857	878 ± 35
355.05 K, x1 = 0.339	914 ± 37
355.15 K, x1 = 0.156	799 ± 32
358.25 K, x1 = 0.091	656 ± 27
365.65 K, x1 = 0.122	707 ± 28
371.75 K, x1 = 0.857	858 ± 34
375.55 K, x1 = 0.156	745 ± 30
375.75 K, x1 = 0.264	746 ± 30
376.65 K, x1 = 0.624	845 ± 34
387.35 K, x1 = 0.339	891 ± 36
